Measured values published in ChEMBL document CHEMBL1136896, “Synthesis and biological evaluation of arylhydrazinocyanoacrylates and N-aryl pyrazolecarboxylates” (2009).

These compounds were tested on Digitaria sanguinalis (assay: Herbicidal activity against Digitaria sanguinalis (L.) Scop. at 1.5 kg/hectare administered preemergence of first true leaf measured after 10 days). Conditions: pre-emergence, 240 h.
Assay type: functional

| SMILES | inhibition at 1500 g/ha [%] |
| --- | --- |
| CCOCCOC(=O)/C(C#N)=C(\NCc1ccc(Cl)nc1)SC | 18.8 |
| CCOCCOC(=O)c1c(SC)nn(-c2ccc(C)cc2)c1N | 0 |

These compounds were tested on Alternaria solani (assay: Fungicidal activity against Alternaria solani assessed as inhibition of mycelium growth at 50 mg/L after 72 hrs). Conditions: not given.
Assay type: functional

| SMILES | inhibition at 50 µg/mL [%] |
| --- | --- |
| CC1COC(Cn2cncn2)(c2ccc(Oc3ccc(Cl)cc3)cc2Cl)O1 (stereo not drawn) [DIFENOCONAZOLE] | 100 |
| CCOCCOC(=O)c1c(SC)nn(-c2ccc(C)cc2)c1N | 28 |

Each compound was assayed on Brassica napus (assay: Herbicidal activity against Brassica napus L. at 1.5 kg/hectare administered preemergence of first true leaf measured after 10 days). Conditions: pre-emergence, 240 h.
Assay type: functional

| SMILES | inhibition at 1500 g/ha [%] |
| --- | --- |
| CCOCCOC(=O)/C(C#N)=C(\NCc1ccc(Cl)nc1)SC | 47.6 |
| CCOCCOC(=O)c1c(SC)nn(-c2ccc(C)cc2)c1N | 10 |

The compounds below were run on Medicago sativa (assay: Herbicidal activity against Medicago sativa at 1.5 kg/hectare administered postemergence of first true leaf measured after 10 days). Conditions: post-emergence, 240 h.
Assay type: functional

| SMILES | inhibition at 1500 g/ha [%] |
| --- | --- |
| CCOCCOC(=O)/C(C#N)=C(\NCc1ccc(Cl)nc1)SC | 55.3 |
| CCOCCOC(=O)c1c(SC)nn(-c2ccc(C)cc2)c1N | 0 |

What follows are compounds tested on Botryosphaeria berengeriana (assay: Fungicidal activity against Physalospora pyricola assessed as inhibition of mycelium growth at 50 mg/L after 72 hrs). Conditions: not given.
Assay type: functional

| SMILES | inhibition at 50 µg/mL [%] |
| --- | --- |
| CC1COC(Cn2cncn2)(c2ccc(Oc3ccc(Cl)cc3)cc2Cl)O1 (stereo not drawn) [DIFENOCONAZOLE] | 100 |
| CCOCCOC(=O)c1c(SC)nn(-c2ccc(C)cc2)c1N | 22.7 |

The compounds below were run on Digitaria sanguinalis (assay: Herbicidal activity against Digitaria sanguinalis at 1.5 kg/hectare administered postemergence of first true leaf measured after 10 days). Conditions: post-emergence, 240 h.
Assay type: functional

| SMILES | inhibition at 1500 g/ha [%] |
| --- | --- |
| CCOCCOC(=O)/C(C#N)=C(\NCc1ccc(Cl)nc1)SC | 54.1 |
| CCOCCOC(=O)c1c(SC)nn(-c2ccc(C)cc2)c1N | 0 |

Each compound was assayed on Cladosporium cucumerinum (assay: Fungicidal activity against Cladosporium cucumerinum assessed as inhibition of mycelium growth at 50 mg/L after 72 hrs). Conditions: not given.
Assay type: functional

| SMILES | inhibition at 50 µg/mL [%] |
| --- | --- |
| CC1COC(Cn2cncn2)(c2ccc(Oc3ccc(Cl)cc3)cc2Cl)O1 (stereo not drawn) [DIFENOCONAZOLE] | 100 |
| CCOCCOC(=O)c1c(SC)nn(-c2ccc(C)cc2)c1N | 20 |

These compounds were tested on Medicago sativa (assay: Herbicidal activity against Medicago sativa at 1.5 kg/hectare administered preemergence of first true leaf measured after 10 days). Conditions: pre-emergence, 240 h.
Assay type: functional

| SMILES | inhibition at 1500 g/ha [%] |
| --- | --- |
| CCOCCOC(=O)/C(C#N)=C(\NCc1ccc(Cl)nc1)SC | 3.6 |
| CCOCCOC(=O)c1c(SC)nn(-c2ccc(C)cc2)c1N | 0 |

What follows are compounds tested on Amaranthus retroflexus (assay: Herbicidal activity against Amaranthus retroflexus at 1.5 kg/hectare administered preemergence of first true leaf measured after 10 days). Conditions: pre-emergence, 240 h.
Assay type: functional

| SMILES | inhibition at 1500 g/ha [%] |
| --- | --- |
| CCOCCOC(=O)/C(C#N)=C(\NCc1ccc(Cl)nc1)SC | 32.4 |
| CCOCCOC(=O)c1c(SC)nn(-c2ccc(C)cc2)c1N | 0 |

These compounds were tested on Mycosphaerella arachidis (assay: Fungicidal activity against Cercospora arachidicola assessed as inhibition of mycelium growth at 50 mg/L after 72 hrs). Conditions: not given.
Assay type: functional

| SMILES | inhibition at 50 µg/mL [%] |
| --- | --- |
| CC1COC(Cn2cncn2)(c2ccc(Oc3ccc(Cl)cc3)cc2Cl)O1 (stereo not drawn) [DIFENOCONAZOLE] | 100 |
| CCOCCOC(=O)c1c(SC)nn(-c2ccc(C)cc2)c1N | 35.3 |

What follows are compounds tested on Brassica napus (assay: Herbicidal activity against Brassica napus at 1.5 kg/hectare administered postemergence of first true leaf measured after 10 days). Conditions: post-emergence, 240 h.
Assay type: functional

| SMILES | inhibition at 1500 g/ha [%] |
| --- | --- |
| CCOCCOC(=O)/C(C#N)=C(\NCc1ccc(Cl)nc1)SC | 100 |
| CCOCCOC(=O)c1c(SC)nn(-c2ccc(C)cc2)c1N | 52.7 |

Each compound was assayed on Fusarium graminearum (assay: Fungicidal activity against Gibberella zeae assessed as inhibition of mycelium growth at 50 mg/L after 72 hrs). Conditions: not given.
Assay type: functional

| SMILES | inhibition at 50 µg/mL [%] |
| --- | --- |
| CC1COC(Cn2cncn2)(c2ccc(Oc3ccc(Cl)cc3)cc2Cl)O1 (stereo not drawn) [DIFENOCONAZOLE] | 100 |
| CCOCCOC(=O)c1c(SC)nn(-c2ccc(C)cc2)c1N | 46.7 |

Each compound was assayed on Amaranthus retroflexus (assay: Herbicidal activity against Amaranthus retroflexus at 1.5 kg/hectare administered postemergence of first true leaf measured after 10 days). Conditions: post-emergence, 240 h.
Assay type: functional

| SMILES | inhibition at 1500 g/ha [%] |
| --- | --- |
| CCOCCOC(=O)/C(C#N)=C(\NCc1ccc(Cl)nc1)SC | 100 |
| CCOCCOC(=O)c1c(SC)nn(-c2ccc(C)cc2)c1N | 38 |

What follows are compounds tested on Cucumis sativus (assay: Growth regulatory activity in cucumber assessed as root growth at 10 mg/L incubated in dark for 5 days). Conditions: not given.
Assay type: functional

| SMILES | Activity [%] |
| --- | --- |
| O=C(O)Cc1c[nH]c2ccccc12 [INDOLE-3-ACETIC ACID] | >150 |
| CCOCCOC(=O)c1c(SC)nn(-c2ccc(C)cc2)c1N | 66.6 |
